Experimental data: patent US5317101A, “Tricyclic heterocycles” (Imperial Chemical Industries PLC, priority 1991, dated 1994)

How the values were obtained:
PGE2 receptors = conditions: guinea pig ileum or dog fundus; cited from earlier work
[1] = molecular target: T1, EP1 receptors (PGE2 -induced contractions of the ileum) (Cavia porcellus, UniProt A0A286XHJ6); assay: Test (a): in-vitro guinea pig ileum assay, inhibition of PGE2-induced contractions; format: cell-based; conditions: PGE2-induced contraction, read-out: pA2 value (converted)
T1 construct: ileum was immersed in oxygenated Krebs solution; from tissue; host or cells: guinea pig ileum
T1 sequence (A0A286XHJ6 1-405): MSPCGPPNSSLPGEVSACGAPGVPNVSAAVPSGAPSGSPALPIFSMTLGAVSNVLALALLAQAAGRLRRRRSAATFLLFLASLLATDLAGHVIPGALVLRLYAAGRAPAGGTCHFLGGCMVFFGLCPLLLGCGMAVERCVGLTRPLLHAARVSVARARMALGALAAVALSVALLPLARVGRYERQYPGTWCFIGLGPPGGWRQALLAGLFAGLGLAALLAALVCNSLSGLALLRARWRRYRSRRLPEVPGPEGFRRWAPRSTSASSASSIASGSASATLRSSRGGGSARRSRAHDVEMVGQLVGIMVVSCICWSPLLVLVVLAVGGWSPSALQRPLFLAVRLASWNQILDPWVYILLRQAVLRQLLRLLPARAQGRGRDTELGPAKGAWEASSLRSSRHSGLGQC
Procedure: (a) an in-vitro guinea pig ileum assay which assesses the inhibitory properties of a test compound against PGE2 -induced contractions of the ileum; ileum was immersed in oxygenated Krebs solution containing indomethacin (4 μg/ml) and atropine (1 μM) and which was maintained at 37° C.; the ileum was subject to a tension of 1 g; a control dose response curve for PGE2 -induced contraction of the ileum was obtained; test compound (dissolved in dimethylsulphoxide) was added to the Krebs solution and a dose response curve for the PGE2 - induced contraction of the ileum in the presence of the test compound was obtained; the pA2 value for the test compound was calculated;
Prostanoid receptors and in particular receptors for PGE2 have been tentatively characterised by Kennedy et al. (Advances in Prostaglandin, Thromboxane and Leukotriene Research, 1983, 11, 327).

[2] = system: abdominal constriction induced by the intraperitoneal administration of phenylbenzoquinone; assay: Test (b): in-vivo assay in mice, PBQ-induced abdominal constriction; conditions: 100 mg/kg, oral dosing
Description: (b) an in-vivo assay in mice which assesses the inhibitory properties of a test compound against abdominal constriction induced by the intraperitoneal administration of phenylbenzoquinone (hereinafter PBQ) using the procedure disclosed in European Patent Application No. 0218077.

Row | Kb [1] | Compound | effect on PGE2 action (PGE2 receptors) | activity in Test (b) [2]
1 |  | CC(=O)NNC(=O)N1Cc2ccccc2Oc2ccc(Cl)cc21 [SC-19220] | blocks the effect of PGE2 | 
2 | 0.0251 µM | O=C(O)c1ccc(CN2Cc3ccccc3Nc3ccccc32)s1 [5-(10,11-dihydrodibenzo[b,e][1,4]diazepin-10-ylmethyl)thiophene-2-carboxylic acid] |  | significant activity
3 | 0.0316 µM | O=C(O)c1ccc(CN2Cc3ccccc3Oc3ccc(Cl)cc32)s1 [5-(8-chloro-10,11-dihydrodibenzo[b,f][1,4]oxazepin-10-ylmethyl)thiophene-2-carboxylic acid] |  | 
